Here are results for 4 molecules from PMC7892954, “In vivo Pharmacokinetic Drug-Drug Interaction Studies Between Fedratinib and Antifungal Agents Based on a Newly Developed and Validated UPLC/MS-MS Method” (Frontiers in Pharmacology, 2021).

Series [1] in a line: DDI study: pharmacokinetics of fedratinib in rats with or without antifungal drugs. The class given is in vivo, Sprague-Dawley (SD) rats. The conditions noted are these: for AUC(0-inf) / AUC(0-t) / Cmax / Tmax / half-life / CL/F / MRT last / MRT inf: male, Sprague-Dawley, rat, plasma, po, 40 mg/kg, 40 mg/kg fedratinib oral gavage, n = 6, Mean ± SD; for CL/F: read-out: CLz/F (converted); for MRT last: read-out: MRT0→t; for MRT inf: read-out: MRT0→∞. From the text:
The UPLC-MS/MS procedures were developed and validated to detect fedratinib concentration in plasma to support an investigational study in healthy male Sprague-Dawley (SD) rats (weighing 200 ± 20 g), which were purchased from Laboratory Animal Center of Wenzhou Medical University (Wenzhou, China). The protocols and procedures of the animal experiment were checked in accordance with the regulations defined by Wenzhou Medical University Animal Care and Use Committee (wydw 2018-0002). Before experiment, rats were housed in the environmentally controlled feeding room, and had free access to the water and food.
After 30 min, each rat was administered 40 mg/kg fedratinib by oral gavage. Then, at the time points of 0, 0.333, 0.667, 1, 2, 4, 6, 9, 12, 24, and 48 h, heparinized 1.5 ml polythene tubes were used to collect the blood samples with approximate volume of 0.3 ml. Subsequently, plasma sample (100 µL) was separated and gained after centrifugation of the whole blood samples at room temperature for 10 min with the speed of 4,000 g, and all the plasma samples were placed and held at −80 °C prior to analysis.
Drug and Statistics (DAS) 2.0 software (Shanghai University of Traditional Chinese Medicine, China) was used to analysis the main pharmacokinetic parameters of fedratinib in rats through non-compartmental approach. The comparisons of the main pharmacokinetic parameters of different groups were conducted in one-way analysis of variance equipped with the Dunnett’s test by Statistical Package for the Social Sciences (SPSS Inc., Chicago, IL, United States) version 17.0 software. In any case, if the value of p was below 0.05, it was deemed to be statistically significant.

Series [2] in a line: Stability of fedratinib in rat plasma under different conditions (UPLC-MS/MS). The series is classed as in vitro ADME. The conditions noted are these: for Stability RE (%): n = 5. How it is done: The stability of the analyte in rat plasma under various conditions at LQC and HQC concentration levels (n = 5) was assessed, which were subjected to at room temperature for about 2 h, in the auto-sampler for 6 h at 10 °C prior to analysis, three freeze-thaw cycles (−80 °C to room temperature), and also storage at −80 °C for 21 days. The stability results of this assay in rat plasma should be acceptable when five replicates of QC samples at LQC and HQC concentrations were evaluated and compared with the real concentrations.

For series [3] the following is noted: healthy volunteers, 2015, cited from earlier work.
On the set-up of series [4]: method as in Ogasawara et al., 2020. The settings on record: a strong CYP3A4 inhibitor, ref Ogasawara et al., 2020; cited from earlier work.
Setting [5] is: 20 mg/kg antifungal 30 min before 40 mg/kg fedratinib oral.
The mark [6] stands for this setting: Group A: control (0.5% CMC-Na) 30 min before.
The mark [7] stands for this setting: Group B: 20 mg/kg isavuconazole 30 min before.
[8] abbreviates: Group C: 20 mg/kg posaconazole 30 min before.
Where [9] appears, read: Group D: 20 mg/kg fluconazole 30 min before.
Setting [10] is: Group E: 20 mg/kg itraconazole 30 min before.

Molecules are shown by their SMILES. Read-outs that look alike come from different tables or passages of the source.

As to `CCC(C)n1ncn(-c2ccc(N3CCN(c4ccc(OCC5COC(Cn6cncn6)(c6ccc(Cl)cc6Cl)O5)cc4)CC3)cc2)c1=O` (stereo not drawn) [itraconazole], in series [1] (setting [5]), the “Order of inhibitory effect on fedratinib metabolism” value (from here on “Order of inhibitory effect”) is recorded as “fluconazole > itraconazole > isavuconazole > posaconazole”.

As to `C[C@@H](c1nc(-c2ccc(C#N)cc2)cs1)[C@](O)(Cn1cncn1)c1cc(F)ccc1F` [isavuconazole], in series [1] (setting [5]), the “Inhibitory effect on fedratinib metabolism” value is reported as “inhibitory effect on fedratinib metabolism to a certain extent” and the “Order of inhibitory effect” value is recorded as “fluconazole > itraconazole > isavuconazole > posaconazole”.

Consider `CC[C@@H]([C@H](C)O)n1ncn(-c2ccc(N3CCN(c4ccc(OC[C@@H]5CO[C@@](Cn6cncn6)(c6ccc(F)cc6F)C5)cc4)CC3)cc2)c1=O` [posaconazole], for which, in series [1] (setting [5]), the “Order of inhibitory effect” value is on record as “fluconazole > itraconazole > isavuconazole > posaconazole”.

With `Cc1cnc(Nc2ccc(OCCN3CCCC3)cc2)nc1Nc1cccc(S(=O)(=O)NC(C)(C)C)c1` [Fedratinib], the “Key pharmacokinetic parameters (AUC0→t, AUC0→∞, MRT0→t, MRT0→∞, t1/2, Tmax, CLz/F, Cmax) compared with control Group A” value in series [1] (fedratinib co-administrated with posaconazole (Group C)) is “no significant differences”. Moreover, the AUC(0-inf) – broadly, the area under the concentration-time curve extrapolated to infinity – is 2150 ± 396 ng·h/mL in series [1] (setting [6]); 2720 ± 427 ng·h/mL in series [1] (setting [7]); 2510 ± 260 ng·h/mL in series [1] (setting [8]); 3890 ± 680 ng·h/mL in series [1] (setting [9]); 3320 ± 383 ng·h/mL in series [1] (setting [10]). Besides, the AUC(0-t) – broadly, exposure summed from dosing to a finite time, without extrapolation to infinity – in series [1] (setting [6]) was 2010 ± 309 ng·h/mL; in series [1] (setting [7]), 2590 ± 406 ng·h/mL; in series [1] (setting [8]) it was 2320 ± 202 ng·h/mL; in series [1] (setting [9]) it was 3800 ± 653 ng·h/mL; in series [1] (setting [10]), 3130 ± 317 ng·h/mL. Moreover, the Cmax (usually the maximum level reached in the sampled fluid or tissue) was 101 ± 12.9 ng/mL in series [1] (setting [6]); 123 ± 17.2 ng/mL in series [1] (setting [7]); 98.1 ± 16.6 ng/mL in series [1] (setting [8]); 232 ± 33.1 ng/mL in series [1] (setting [9]); 187 ± 22.2 ng/mL in series [1] (setting [10]). The Tmax (usually the time from dosing to the highest level) amounted to 5.43 ± 0.98 h in series [1] (setting [6]); 6.4 ± 1.34 h in series [1] (setting [7]); 6 ± 1.08 h in series [1] (setting [8]); 7.8 ± 1.64 h in series [1] (setting [9]); 7.2 ± 1.64 h in series [1] (setting [10]). In addition, the half-life (usually the time in which the quantity being followed falls by half) was 11.1 ± 2.72 h in series [1] (setting [6]); 11.1 ± 2.9 h in series [1] (setting [7]); 11.8 ± 2.9 h in series [1] (setting [8]); 10.9 ± 2.38 h in series [1] (setting [9]); 10.2 ± 3.39 h in series [1] (setting [10]). Also, the CL/F in series [1] (setting [6]) was 320 mL/min/kg; in series [1] (setting [7]), 247 mL/min/kg; in series [1] (setting [8]), 277 mL/min/kg; in series [1] (setting [9]) it was 176 mL/min/kg; in series [1] (setting [10]), 204 mL/min/kg. Moreover, the MRT last in series [1] (setting [6]) was determined as 14.4 ± 1.41 h; in series [1] (setting [7]) it was 14.9 ± 0.87 h; in series [1] (setting [8]), 14.3 ± 1.21 h; in series [1] (setting [9]), 13.4 ± 1.3 h; in series [1] (setting [10]) it was 14.5 ± 1.95 h. Also, the MRT inf came to 15.6 ± 1.65 h in series [1] (setting [6]); 15.5 ± 1.34 h in series [1] (setting [7]); 14.6 ± 1.32 h in series [1] (setting [8]); 13.9 ± 1.36 h in series [1] (setting [9]); 15.2 ± 2.1 h in series [1] (setting [10]). In addition, the “Stability RE (%)” value in series [2] (1.5 ng/ml, Auto-sampler 10°C, 6 h) is given as 8.3%; in series [2] (1.5 ng/ml, Room temperature, 2 h) it was 14.1%; in series [2] (1.5 ng/ml, Three freeze-thaw (−80 °C to room temperature)), −4.6%; in series [2] (1.5 ng/ml, −80°C, 21 days) it was 2.7%; in series [2] (400 ng/ml, Auto-sampler 10°C, 6 h) it was 11.4%; in series [2] (400 ng/ml, Room temperature, 2 h) it was 10.3%. Also, the “Stability RE (%)” value is given as 12.5% in series [2] (400 ng/ml, Three freeze-thaw (−80 °C to room temperature)) and 14.2% in series [2] (400 ng/ml, −80°C, 21 days). Also, the “Deviation from nominal concentrations (stability)” value in series [2] (LQC and HQC, all four storage conditions) was below 15%. Further, the “Impact of pantoprazole on the pharmacokinetics of fedratinib” value in series [3] (40 mg pantoprazole once daily with a single dose of 500 mg fedratinib, ref Xu et al.) is given as “no significantly impact”. Also, in series [3] (ref Zhang et al.), the “Effect of intake of food on pharmacokinetics and bioavailability of fedratinib” value is listed as “slightly affect”. Further, the “Effect of ketoconazole on systemic exposure of fedratinib” value in series [4] is recorded as “increases the systemic exposure of fedratinib”.
